By EC50 is commonly meant the concentration giving half of the maximal effect. The low end stands for a more potent agent, the high end for a less potent agent.

Where a name gives a salt, the structure may show the parent alone.

Chain of Glycogen synthase kinase-3 beta (P49841 whole entry): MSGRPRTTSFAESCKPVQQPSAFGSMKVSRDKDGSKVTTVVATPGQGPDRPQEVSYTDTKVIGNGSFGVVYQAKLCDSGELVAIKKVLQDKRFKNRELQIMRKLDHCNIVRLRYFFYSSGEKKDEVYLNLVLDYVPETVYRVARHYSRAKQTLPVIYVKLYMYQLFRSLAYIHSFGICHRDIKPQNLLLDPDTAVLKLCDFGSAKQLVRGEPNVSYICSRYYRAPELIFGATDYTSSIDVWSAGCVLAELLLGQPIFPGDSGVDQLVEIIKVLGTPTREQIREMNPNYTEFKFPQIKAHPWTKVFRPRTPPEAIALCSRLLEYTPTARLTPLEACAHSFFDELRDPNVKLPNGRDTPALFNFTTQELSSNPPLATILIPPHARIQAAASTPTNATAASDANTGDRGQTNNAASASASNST

The assay has as its target Glycogen synthase kinase-3 beta (Homo sapiens, UniProt P49841). Description: GSK3beta kinase inhibitor potency, dose response, biochemical, luminescence, cell-free homogeneous, retest (AID 434954).
As to `CCOc1cc(C2C(C(=O)N3CCCCC3)=C(C)N=C3CC(C)(C)CC(=O)C32)ccc1O` (stereo not given) [4-(3-ethoxy-4-hydroxyphenyl)-2,7,7-trimethyl-3-[oxo(1-piperidinyl)methyl]-1,4,6,8-tetrahydroquinolin-5-one], the EC50 is over 300 µM.
As for `O=C(CCSCCc1ccccn1)Nc1cc(F)ccc1F` [N-(2,5-difluorophenyl)-3-(2-pyridin-2-ylethylsulfanyl)propanamide], the figure is over 300 µM; as for `CC(=O)N1CCc2c(sc(NC(=O)CCS(=O)(=O)c3ccccc3)c2C(N)=O)C1`, 122 µM.
As for `COCCOc1ccc(C(F)(F)F)cc1NC(=O)COC(=O)c1cc[n+]([O-])cc1` [[2-[2-(2-methoxyethoxy)-5-(trifluoromethyl)anilino]-2-oxoethyl] 1-oxidopyridin-1-ium-4-carboxylate], the figure is over 300 µM.
The result for `C=CCN=C(NC#N)SCC(=O)NC(C)(C)C` [MLS000078466] reads over 300 µM.
As for `COc1cccc(OC)c1OCCNCC1COc2ccccc2O1` (stereo not given) [WB-4101 hydrochloride], the EC50 is over 300 µM.
As for `O=[N+]([O-])c1ccc(Cl)cc1NCCCN1CCOCC1`, the figure is over 300 µM; as for `Cc1ccc(NC2=CC(=O)CC(C)(C)C2)cc1F` [MLS001198284], over 300 µM.
The result for `COc1cc2ncnc(Nc3ccc4c(c3)OCO4)c2cc1OC` reads over 300 µM; that for `Cc1ccc(-n2nc3c(N4CCC(C(=O)N5CCCCCC5)CC4)nnc(C)c3c2C)cc1` [MLS001028811], over 300 µM.
The result for `O=C(c1ccncc1)N1CCN(C(=O)c2ccco2)CC1` [MLS000066790] reads over 300 µM.
On to `CCN(CC)CCOC(=O)c1ccc(NC(=S)NC(=O)C=Cc2ccco2)cc1` [MLS001178772], for which the EC50 was over 300 µM.
With `COc1cc(CN=Nc2nc(Nc3ccccc3)nc(N3CCCCC3)n2)ccc1OCC(=O)O` [SMR000312683], the 50% effective concentration (EC50) is over 300 µM.
In turn, `O=C(C1CCCO1)N1N=C(c2ccc(Br)cc2)CC1c1ccco1` (stereo not given) [MLS000699386] gave an EC50 of over 300 µM.
Turning to `CCc1cc(=O)oc2cc(C)cc(O)c12` [4-ethyl-5-hydroxy-7-methyl-1-benzopyran-2-one], the EC50 is over 300 µM.
Regarding `Cc1ccc(C(=O)ON=C(N)c2ccccn2)c(C)c1`, the EC50 amounted to 14.9 µM.
As for `O=c1cc(-c2ccncc2)oc2ccccc12` [2-(4-pyridyl)chromone], the figure is 17.9 µM; as for `CCC(C)NCCOCCOc1ccc(Cl)cc1Br` (stereo not given) [N-[2-[2-(2-bromo-4-chlorophenoxy)ethoxy]ethyl]-2-butanamine;oxalic acid], over 300 µM; as for `COc1ccc(OC)c(Nc2nc(NCc3ccco3)nc(N)c2[N+](=O)[O-])c1` [N'-(2,5-Dimethoxy-phenyl)-N-furan-2-ylmethyl-5-nitro-pyrimidine-2,4,6-triamine], over 300 µM.
Regarding `c1ccc(Nc2nc(-c3ccncc3)nc3ccccc23)cc1`, the EC50 was determined as 22 µM.
As for `COc1ccc(OC)c(Nc2oc3cc(=O)ccc-3cc2C(N)=O)c1` [2-[(Z)-2,5-Dimethoxy-phenylimino]-7-hydroxy-2H-chromene-3-carboxylic acid amide], the figure is 11.9 µM; as for `Cc1cccc(C(=O)Nc2ccc(O)c3c(=O)cc(-c4ccccc4Cl)oc23)c1`, over 300 µM; as for `NNc1ncnc2c1cnn2-c1ccccc1` [(1-phenylpyrazolo[3,4-d]pyrimidin-4-yl)diazane], 12.8 µM.
As for `N#Cc1c(N2CCCCC2)nc(N2CCCCC2)c2c1CCN(Cc1ccccc1)C2` [SMR000036037], the figure is 3.3 µM; as for `Fc1ccc(CSc2nnc(-c3cccnc3)o2)cc1` [2-[(4-fluorophenyl)methylthio]-5-(3-pyridinyl)-1,3,4-oxadiazole], over 300 µM; as for `CSc1nc(SCC(=O)NCC2CCCO2)c2c3c(sc2n1)CN(C)CC3` (stereo not given) [2-[(7-methyl-2-methylsulfanyl-6,8-dihydro-5H-pyrido[2,3]thieno[2,4-b]pyrimidin-4-yl)sulfanyl]-N-(oxolan-2-ylmethyl)ethanamide], 22.8 µM.
The result for `CCn1c(SCc2ccccc2)nnc1-c1cccs1` reads over 300 µM; that for `O=C(Nc1ccccc1)Nc1ccccn1` [1-phenyl-3-pyridin-2-ylurea], over 300 µM; that for `CCOC(=O)C1C(C)=Nc2ncnn2C1c1cc(Br)ccc1F` (stereo not given) [ethyl 7-(5-bromo-2-fluorophenyl)-5-methyl-1,7-dihydro-[1,2,4]triazolo[1,5-a]pyrimidine-6-carboxylate], 24 µM.
In turn, `CCCN(CCC)Cc1c(C(=O)NN=Cc2c[nH]c3ccccc23)nnn1-c1nonc1N` had an EC50 of over 300 µM.
As for `CCCn1nc(NC(=O)C2CCCO2)c2cc3cccc(C)c3nc21` (stereo not given) [N-(8-methyl-1-propylpyrazolo[3,4-b]quinolin-3-yl)oxolane-2-carboxamide], the figure is over 300 µM; as for `CCC(=O)Nc1sc2c(c1C(N)=O)CCN(Cc1ccccc1)C2`, over 300 µM.
The result for `Nc1nonc1-n1nnc(C(=O)NN=Cc2ccccc2F)c1CN1CCc2ccccc21` [MLS001075096] reads 22.5 µM; that for `O=C(O)c1cccc(-c2ccc(CN=Nc3ccc([N+](=O)[O-])cc3)o2)c1` [MLS000777078], over 300 µM; that for `CNc1nc(N)c(C(=O)C(C)(C)C)s1` [MLS000050680], over 300 µM.
For `O=C(Nc1ccc(O)c2c(=O)cc(-c3ccccc3Cl)oc12)c1ccc(Cl)c(Cl)c1`, the response was half-maximal at 117 µM (EC50).
As for `CCOC(=O)C1C(C(F)(F)F)=Nc2ncnn2C1c1cc(OC)ccc1OC` (stereo not given), the figure is over 300 µM; as for `CN(C)S(=O)(=O)c1cc(NC(=O)CN2CCN(c3ccc(O)cc3)CC2)ccc1Cl` [MLS000774170], over 300 µM; as for `Cc1ccc(S(=O)(=O)N/C(=N/C(C)C(=O)O)c2ccccc2)cc1` (stereo not given) [MLS000108658], over 300 µM.
The result for `Cc1ccc(-c2nn(-c3ccccc3)cc2CN=O)cc1` [N-[[3-(4-methylphenyl)-1-phenylpyrazol-4-yl]methylidene]hydroxylamine] reads 0.565 µM; that for `C[C@H](C(O)c1ccccc1)N(C)C(=O)CN` (stereo not given in full) [SMR000639412], over 300 µM; that for `CCOC(=O)C1C(C)=Nc2ncnn2C1/C=C/c1ccccc1` (stereo not given) [MLS000089169], over 300 µM.
`Cc1ccccc1CSc1nnc([C@@H]2CCCN2)o1` [MLS000333752] yielded an EC50 of over 300 µM.
As for `O=NCc1ccc(Oc2ccc(F)cc2)c([N+](=O)[O-])c1` [N-[[4-(4-fluorophenoxy)-3-nitrophenyl]methylidene]hydroxylamine], the figure is 23 µM.
The result for `CN(C)Cc1c(C(=O)NN=Cc2ccncc2)nnn1-c1nonc1N` reads 6.17 µM.
The result for `Cc1ccccc1NC(=O)CN1C(=O)c2ccccc2C1=O` [2-[1,3-bis(oxidanylidene)isoindol-2-yl]-N-(2-methylphenyl)ethanamide] reads over 300 µM.
With `CC(=O)Nc1ccccc1C(=O)OCc1ccc(C(=O)c2ccccc2)cc1`, the half-maximal effective concentration (EC50) was over 300 µM.
Regarding `Cc1nc(N2CCOCC2)nc(N2CCCCC2C)c1[N+](=O)[O-]` (stereo not given) [MLS001012395], the EC50 was over 300 µM.
`CC(C)[C@H](CO)Nc1nc(NCc2ccc(S(N)(=O)=O)cc2)c2ncn(C(C)C)c2n1` [4-[[[2-[[(2R)-1-hydroxy-3-methylbutan-2-yl]amino]-9-propan-2-yl-6-purinyl]amino]methyl]benzenesulfonamide]: the midpoint of the response, the EC50, lay at 39.6 µM. This counts as double-digit micromolar.
As to `Cc1oc2c(CN(C)C)c(O)ccc2c(=O)c1-c1cscn1`, the EC50 is over 300 µM.

The values above are taken from BindingDB's records for doi:10.7270/Q2TX3CTT (Broad Institute, 2010).
